In publication PMC3690263, “Trypanocidal Activity of Smallanthus sonchifolius: Identification of Active Sesquiterpene Lactones by Bioassay-Guided Fractionation” (Evidence-based Complementary and Alternative Medicine : eCAM, 2013):
Where “and” joins values, the source holds several entries; their conditions need not be identical. Equal entries are not always repeated. Entries after “also recorded” stand apart in the source; their conditions may differ.

What was measured:
T. cruzi amastigotes = assay: Intracellular amastigotes in J774 macrophages, β-galactosidase/CPRG assay; assay type: cell-based, Trypanosoma cruzi; settings: for selectivity index (SI): CC50 Vero cells divided by IC50 T. cruzi amastigotes; for IC50: Trypanosoma cruzi, intracellular amastigotes in J774 macrophages, 48 h after addition
Procedure: To evaluate the effect of compounds 1–3 on intracellular forms of T. cruzi, 96-well plates were seeded with J774 murine macrophages at 5 × 10^3 per well in 100 μL of culture medium and incubated for 2 h at 37°C in a 5% CO2 atmosphere. Cells were infected with transfected blood trypomastigotes expressing β-galactosidase at a parasite : cell ratio of 10 : 1. After 2 h of coculture, plates were washed twice with PBS to remove free parasites and compounds 1–3 were added at 0.1–50 μg/mL per well in 150 μL of fresh complete RPMI medium without phenol red (Gibco, Rockville, MD). Controls included infected nontreated cells (100% infection control) and uninfected cells (0% infection control). The assay was developed 48 h later by addition of chlorophenol red-β-d-galactopyranoside (100 μM CPRG) and 1% Nonidet P40. Plates were incubated for 4–6 h at 37°C. Wells with galactosidase activity turned the media from yellow to red, and this reaction was quantified at 590 nm in a microplate reader (Bio-Rad Laboratories, Hercules, CA). Percentage inhibition was calculated as 100 − {[(absorbance of treated infected cells)/(absorbance of untreated infected cells)] × 100} and the IC50 value calculated.
The selectivity index (SI) of each compound was calculated as the CC50 obtained with Vero cells divided by the IC50 obtained against T. cruzi amastigotes.

T. cruzi epimastigotes = assay: Recovery of epimastigotes after 24 h treatment (residual effect), Neubauer chamber counting; assay type: cell-based, Trypanosoma cruzi; settings: for reduction in the replication rate / amount of parasites after treatment: epimastigotes; for reduction in the replication rate: at 24 h after treatment; for amount of parasites after treatment: 24 h treatment
Procedure: To determine whether the parasites could recover after treatment with the pure compounds, T. cruzi epimastigotes were incubated with compounds 1–3 (0.1, 1, and 10 μg/mL) for 24 h. Parasites were then centrifuged at 3000 rpm for 10 min, resuspended in fresh medium, and incubated for 2 additional days, counting the number of parasite in a Neubauer chamber on a daily basis.

T. cruzi trypomastigotes = assay: Trypanocidal effect on bloodstream trypomastigotes, counting of remaining live parasites; assay type: cell-based, Trypanosoma cruzi; settings: 24 h; for IC50: Trypanosoma cruzi
Procedure: The trypanocidal effect of compounds 1, 2, and 3 was also tested on bloodstream trypomastigotes as previously described. Briefly, mouse blood containing trypomastigotes was adjusted to a concentration of 1.5 × 10^6 parasite/mL and seeded (150 μL/well) by duplicate into a 96-well microplate, in the presence of each compound (1 to 50 μg/mL, final concentration). Plates were incubated for 24 h, and the remaining live parasites were counted in a haemocytometer.

[1] = test system: T. cruzi epimastigotes (RA strain); assay: [3H] thymidine uptake assay, growth inhibition of T. cruzi epimastigotes; assay type: cell-based; settings: Trypanosoma cruzi, 72 h of incubation
Procedure: T. cruzi epimastigotes (RA strain) were grown in liver infusion tryptose medium (LIT) supplemented with 10% fetal bovine serum (Natocor). Cultures were routinely maintained by weekly passages at 28°C. T. cruzi trypomastigotes were routinely maintained by infecting 21-day-old male CF1 mice. T. cruzi amastigotes were obtained by infecting J774 cells with bloodstream trypomastigotes.
S. sonchifolius OE and fractions F 1A–F 5B were tested for trypanocidal activity against T. cruzi epimastigotes, at final concentrations of 10 μg/mL and 100 μg/mL, by a [^3H] thymidine uptake assay as previously described. Compounds 1, 2, and 3 were tested at final concentrations ranging from 0.01 μg/mL to 50 μg/mL. Stock solutions of the samples were prepared in ethanol : water (1 : 1). Epimastigotes in exponential growth phase were adjusted to 1.5 × 10^6 parasites/mL and seeded on 96-well plates in the presence of the different concentrations of OE, fractions, or compounds. Parasites were cultured in triplicate for 72 h. Control parasites were cultured in absence or presence of benznidazole (20 μM; Roche-Rio de Janeiro, Brazil). Percentage inhibition was calculated as 100 − {[(cpm of treated parasites)/(cpm of untreated parasites)] × 100}. The compound concentration at which the parasite growth was inhibited by 50% (inhibitory concentration 50, IC50) was determined after 72 h.

MTT cytotoxicity assay = assay type: cell-based; settings: African green monkey, Vero cells
Procedure: The cytotoxic effect of compounds 1, 2, and 3 on Vero cells was evaluated by using the MTT tetrazolium salt (3-(4,5-dimethylthiazol-2-yl)-2,5-diphenyltetrazolium bromide) (Sigma) colorimetric assay. Cells (5 × 10^4 cells/well) were seeded at a final volume of 150 μL in a flat-bottom 96-well microplate and cultured at 37°C in a 5% CO2 atmosphere in the absence or presence of increasing concentrations of the compounds (1–50 μg/mL). After 24 h, MTT was added at a final concentration of 1.5 mg/mL and plates were incubated for 2 h at 37°C. The purple formazan crystals were completely dissolved by adding 150 μL of ethanol, and the absorbance was detected at 570 nm in a microplate reader. Results were calculated as the ratio between optical density in the presence and absence of the compound multiplied by 100. The 50% cytotoxic concentration (CC50) was calculated for each compound. All experiments were made in duplicate.

[2] = 10 μg/mL for 24 h, then 2 days in fresh medium

For `C=C1C(=O)O[C@H]2[C@H]1[C@H](OC(=O)[C@@]1(C)O[C@H]1C)[C@@H](OC(C)=O)/C(C(=O)OC)=C\CC[C@@]1(C)O[C@H]21` [enhydrin, 4α,5β-epoxy-8β-(2′S,3′S)-epoxyangeloyloxy-9α-acetyloxy-1(10)E,11(13)-germacradien-12,6α-olide-14-oic-acid methyl ester], the “selectivity index (SI)” value (T. cruzi amastigotes) was 9, the IC50 (T. cruzi amastigotes) was 5.17 µM and 2.4 µg/mL and the “recovery of epimastigote replication after removal of compound” value (“recovery of epimastigote replication” for short) (T. cruzi epimastigotes; [2]) was “not able to recover their replication rate; also recorded: no recuperation of the epimastigotes was observed; also recorded: not able to recover their initial replication rates”. The “reduction in the replication rate” value (T. cruzi epimastigotes; 1 μg/mL) was about 50%, the “amount of parasites after treatment” value (T. cruzi epimastigotes; 10 μg/mL) was “drastic reduction in the amount of parasites” and the IC50 (T. cruzi trypomastigotes) was 33.4 µM and 15.5 µg/mL. The IC50 [1] was 840 nM and 0.39 µg/mL and the CC50 at 24 h (MTT cytotoxicity assay) was 46.5 µM and 21.6 µg/mL.

With `C=C1C(=O)O[C@@H]2/C=C(\C)CC/C=C(/C(=O)OC)[C@H](OC(C)=O)[C@@H](OC(=O)[C@]3(C)O[C@@H]3C)[C@@H]12` [uvedalin, 8β-(2′S,3′S)-epoxyangeloyloxy-9α-acetyloxy-1(10)E,4E,11(13)-germacratrien-12,6α-olide-14-oic acid methyl ester] the “selectivity index (SI)” value (T. cruzi amastigotes) was 14, the IC50 (T. cruzi amastigotes) was 3.34 µM and 1.5 µg/mL and the “recovery of epimastigote replication” value (T. cruzi epimastigotes; [2]) was “not able to recover their replication rate; also recorded: no recuperation of the epimastigotes was observed; also recorded: not able to recover their initial replication rates”. The “reduction in the replication rate” value (T. cruzi epimastigotes; 1 μg/mL) was about 50%, the “amount of parasites after treatment” value (T. cruzi epimastigotes; 10 μg/mL) was “drastic reduction in the amount of parasites” and the IC50 (T. cruzi trypomastigotes) was 25 µM and 11.2 µg/mL. The IC50 [1] was 1.09 µM and 0.49 µg/mL and the CC50 at 24 h (MTT cytotoxicity assay) was 46.8 µM and 21 µg/mL.

With `C=C1C(=O)O[C@@H]2/C=C(\C)CC/C=C(/C(=O)OC)[C@H](OC(C)=O)[C@@H](OC(=O)/C(C)=C\C)[C@@H]12` [polymatin B, 8β-angeloyloxi-9α-acetyloxi-1(10)E,4E,11(13)-germacratrien-12,6α-olide-14-oic acid methyl ester] the “selectivity index (SI)” value (T. cruzi amastigotes) was 16.3, the IC50 (T. cruzi amastigotes) was 9.02 µM and 3.9 µg/mL and the “recovery of epimastigote replication” value (T. cruzi epimastigotes; 0.1 μg/mL for 24 h, then fresh medium) was “recovered their replication rates at values similar to the control parasites”. The “reduction in the replication rate” value (T. cruzi epimastigotes; 10 μg/mL) was about 50%, the activity against trypomastigotes (T. cruzi trypomastigotes; 1 to 50 μg/mL) was “not active” and the IC50 [1] was 4.9 µM and 2.12 µg/mL. For the same compound, the CC50 at 24 h (MTT cytotoxicity assay) was 147 µM and 63.7 µg/mL.
